Measurements reported in US11160742B2, “Methods and compositions for improving hair color fastness and rejuvenating hair color” (L'Oreal, priority 2018, dated 2021).

Experiment: Partition coefficient (Log Po/w) of direct dyes
Conditions: octanol/water partition coefficient; for Log Po/w: table of dyes

Compound	Log Po/w	Log Po/w value
O=[N+]([O-])c1cc(N(CCO)CCO)ccc1NCCO [HC BLUE NO. 2]	−0.32	–
C[N+](C)(C)c1ccc2ccc(O)c(N=Nc3ccc(N)c([N+](=O)[O-])c3)c2c1.[Cl-] [BASIC BROWN 17]	−0.15	–
CCN(CC)c1ccc2c(-c3ccc(S(=O)(=O)[O-])cc3S(=O)(=O)[O-])c3ccc(=[N+](CC)CC)cc-3oc2c1.[Na+] [ACID RED 52]	1.3	–
Cc1ccc(Nc2ccc(Nc3ccc(C)cc3S(=O)(=O)[O-])c3c2C(=O)c2ccccc2C3=O)c(S(=O)(=O)[O-])c1.[Na+].[Na+] [ACID GREEN 25]	5.71	–
Nc1ccc(O)cc1[N+](=O)[O-] [4-AMINO-3-NITROPHENOL]	1.19	–
O=[N+]([O-])c1cc(N(CCO)CCO)ccc1NCCCO [HC VIOLET NO 2]	0.608	–
HC RED NO. 7	0.13	–
O=C1c2ccccc2C(=O)c2c(NCC(O)CO)ccc(NCC(O)CO)c21 (centres unmarked) [HC BLUE NO. 14]	2.09	–
ACID YELLOW 3	−1.05	–
Nc1c(N=Nc2ccc([N+](=O)[O-])cc2)c(S(=O)(=O)[O-])cc2cc(S(=O)(=O)[O-])c(N=Nc3ccccc3)c(O)c12.[Na+].[Na+] [ACID BLACK 1]	1.2	–
Cc1cc(N)c([N+](=O)[O-])cc1NCCO [HC VIOLET NO 1]	0.67	–
CNc1cc(OCC(O)CO)ccc1[N+](=O)[O-] (centres unmarked) [2-NITRO-5-GLYCERYL METHYLANILINE]	0.89	–
CN(C)c1ccc(/N=N/c2n(C)cc[n+]2C)cc1 [BASIC RED 51, Basic Red 51]	−1.97	around −1.97
COc1ccc([N+](=O)[O-])c(NCCN)c1.Cl [HC YELLOW NO. 9]	1.3	–
C[N+](C)(C)c1cccc(N=C2C=C(N)c3c(O)c(Br)cc(N)c3C2=O)c1.[Cl-] [BASIC BLUE 99]	1.88	–
O=[N+]([O-])c1cc(O)ccc1NCCO [3-NITRO-P-HYDROXYETHYLAMINOPHENOL]	0.21	–

Compound	Log Po/w	Log Po/w value
CC1=NN(c2ccccc2)C(=O)C1N=Nc1cccc([N+](C)(C)C)c1.[Cl-] (centres unmarked) [BASIC YELLOW 57]	0.06	–
Nc1ccc(N)c2c1C(=O)c1ccccc1C2=O [DISPERSE VIOLET 1]	3	–
O=C([O-])c1c(Cl)c(Cl)c(Cl)c(Cl)c1-c1c2cc(Br)c(=O)c(Br)c-2oc2c(Br)c([O-])c(Br)cc12.[Na+].[Na+] [ACIDE RED 92]	3	–
Nc1cc(S(=O)(=O)[O-])cc2cc(S(=O)(=O)[O-])c(N=Nc3ccccc3)c(O)c12.[Na+].[Na+] [ACID RED 33]	0.5	–
O=C([O-])C1=NN(c2ccc(S(=O)(=O)[O-])cc2)C(=O)C1N=Nc1ccc(S(=O)(=O)[O-])cc1.[Na+].[Na+].[Na+] (centres unmarked) [ACID YELLOW 23]	−10.17	–
O=S(=O)([O-])c1ccc(N=Nc2c(O)ccc3ccccc23)cc1.[Na+] [ACID ORANGE 7]	1.4	–
CN(N=Cc1cc[n+](C)cc1)c1ccccc1 [BASIC YELLOW 87, Basic Yellow 87]	−1.69	around −1.67
Cn1cc[n+](C)c1N=Nc1ccc(N)cc1.[Cl-] [BASIC ORANGE 31, Basic Orange 31]	−2.31	around −2.31
Nc1ccc(NCCO)c([N+](=O)[O-])c1 [HC RED NO. 3]	−0.42	–
Cc1ccc(Nc2ccc(O)c3c2C(=O)c2ccccc2C3=O)c(S(=O)(=O)[O-])c1.[Na+] [ACIDE VIOLET 43]	3.1	–
COS(=O)(=O)[O-].C[N+]1(CCCNc2ccc(O)c3c2C(=O)c2ccccc2C3=O)CCOCC1 [HYDROXYANTHRAQUINONEAMINO-PROPYL METHYL MORPHOLINIUM METHOSULFATE]	0.89	–
NCCNc1ccc(OCCO)cc1[N+](=O)[O-] [HC ORANGE NO. 2]	0.13	–
CCN(Cc1cccc(S(=O)(=O)[O-])c1)c1ccc(C(=C2C=CC(=[N+](CC)Cc3cccc(S(=O)(=O)[O-])c3)C=C2)c2ccccc2S(=O)(=O)[O-])cc1.[Na+].[Na+] [ACID BLUE 9]	−0.32	–
CC1=CC(=C(c2cc(C)c(N)c(C)c2)c2c(Cl)cccc2Cl)C=C(C)C1=N.O=P(O)(O)O [HC BLUE NO. 15]	3.47	–
O=S(=O)(O)c1cc(S(=O)(=O)O)c2c(/N=N\c3ccc(S(=O)(=O)O)c4ccccc34)c(O)ccc2c1 [ACID RED18]	1.63	–
Cc1cc(N(CCO)CCO)ccc1N=Nc1ccc(N)cc1 [HC YELLOW NO. 7]	2.59	–
